Laboratory results published in US10227324B2 (Shanghai Haiyan Pharmaceutical Technology Co., Ltd., priority 2014, dated 2019).
Like-named read-outs stand apart in the source and are kept apart here. One block for each molecule: values may come before it.

Legend:
[1] = biological target: T1, PI3K-δ kinase (p110δ/p85α) (Homo sapiens, UniProt O00329); assay: Determination of PI3K kinase activity (ADP Transcreener, fluorescence polarization); type: biochemical; details: Table 1; ATP 10 μM; read-out: PI3K-δ/nM (IC50 of inhibitory activity against PI3K kinase)
T1 construct: purchased Millipore 14-604M
T1 sequence (O00329 whole entry): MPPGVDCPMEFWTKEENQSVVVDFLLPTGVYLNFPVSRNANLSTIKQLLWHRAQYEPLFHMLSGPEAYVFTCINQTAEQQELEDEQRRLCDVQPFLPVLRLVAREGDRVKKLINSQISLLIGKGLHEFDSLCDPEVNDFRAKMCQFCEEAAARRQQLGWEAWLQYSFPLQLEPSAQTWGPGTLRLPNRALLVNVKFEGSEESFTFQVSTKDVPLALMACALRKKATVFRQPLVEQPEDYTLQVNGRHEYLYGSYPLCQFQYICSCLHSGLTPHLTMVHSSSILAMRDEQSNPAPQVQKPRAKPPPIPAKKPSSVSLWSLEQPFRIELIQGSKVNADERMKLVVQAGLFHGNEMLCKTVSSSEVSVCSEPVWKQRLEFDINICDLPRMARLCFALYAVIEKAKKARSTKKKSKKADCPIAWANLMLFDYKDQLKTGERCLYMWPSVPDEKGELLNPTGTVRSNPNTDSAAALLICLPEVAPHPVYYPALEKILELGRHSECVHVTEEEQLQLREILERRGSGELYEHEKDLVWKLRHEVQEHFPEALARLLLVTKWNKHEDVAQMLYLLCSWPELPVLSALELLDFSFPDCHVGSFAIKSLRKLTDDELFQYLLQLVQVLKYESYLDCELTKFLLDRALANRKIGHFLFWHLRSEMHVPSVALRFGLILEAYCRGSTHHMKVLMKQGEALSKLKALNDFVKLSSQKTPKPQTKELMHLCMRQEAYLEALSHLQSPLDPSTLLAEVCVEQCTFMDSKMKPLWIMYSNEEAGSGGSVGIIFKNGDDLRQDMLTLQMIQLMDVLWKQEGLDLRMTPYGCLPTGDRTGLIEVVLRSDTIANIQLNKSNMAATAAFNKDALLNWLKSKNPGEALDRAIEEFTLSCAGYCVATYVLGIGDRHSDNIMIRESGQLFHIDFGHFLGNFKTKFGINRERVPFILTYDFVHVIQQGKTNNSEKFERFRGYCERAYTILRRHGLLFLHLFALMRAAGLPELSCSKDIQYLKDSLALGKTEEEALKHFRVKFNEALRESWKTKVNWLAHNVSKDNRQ
T1 sequence (P27986 whole entry partner): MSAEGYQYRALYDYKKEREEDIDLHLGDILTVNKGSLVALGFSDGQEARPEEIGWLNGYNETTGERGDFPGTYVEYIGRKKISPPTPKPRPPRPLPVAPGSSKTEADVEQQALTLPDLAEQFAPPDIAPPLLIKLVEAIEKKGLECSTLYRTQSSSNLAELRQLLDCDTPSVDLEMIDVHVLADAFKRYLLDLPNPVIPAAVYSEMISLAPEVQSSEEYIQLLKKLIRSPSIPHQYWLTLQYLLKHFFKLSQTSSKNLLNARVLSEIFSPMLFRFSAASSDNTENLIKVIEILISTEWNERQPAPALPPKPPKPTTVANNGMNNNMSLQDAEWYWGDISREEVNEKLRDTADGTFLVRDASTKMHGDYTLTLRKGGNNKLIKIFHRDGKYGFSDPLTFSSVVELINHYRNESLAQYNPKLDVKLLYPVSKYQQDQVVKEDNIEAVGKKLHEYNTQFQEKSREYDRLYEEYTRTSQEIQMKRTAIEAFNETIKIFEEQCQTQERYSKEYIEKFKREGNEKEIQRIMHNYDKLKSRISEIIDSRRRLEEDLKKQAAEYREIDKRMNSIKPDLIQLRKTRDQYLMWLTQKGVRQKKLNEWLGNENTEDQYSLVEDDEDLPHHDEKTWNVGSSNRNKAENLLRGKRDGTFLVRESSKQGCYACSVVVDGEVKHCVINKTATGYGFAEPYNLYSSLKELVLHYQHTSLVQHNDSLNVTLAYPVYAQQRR

[2] = biological target: T2, PI3K-β kinase (p110β/p85α) (Homo sapiens, UniProt P42338); assay: as above; type: biochemical; details: Table 1; ATP 10 μM; read-out: PI3K-β/nM (IC50 of inhibitory activity against PI3K kinase)
T2 construct: purchased Millipore 14-603
T2 sequence (P42338 whole entry): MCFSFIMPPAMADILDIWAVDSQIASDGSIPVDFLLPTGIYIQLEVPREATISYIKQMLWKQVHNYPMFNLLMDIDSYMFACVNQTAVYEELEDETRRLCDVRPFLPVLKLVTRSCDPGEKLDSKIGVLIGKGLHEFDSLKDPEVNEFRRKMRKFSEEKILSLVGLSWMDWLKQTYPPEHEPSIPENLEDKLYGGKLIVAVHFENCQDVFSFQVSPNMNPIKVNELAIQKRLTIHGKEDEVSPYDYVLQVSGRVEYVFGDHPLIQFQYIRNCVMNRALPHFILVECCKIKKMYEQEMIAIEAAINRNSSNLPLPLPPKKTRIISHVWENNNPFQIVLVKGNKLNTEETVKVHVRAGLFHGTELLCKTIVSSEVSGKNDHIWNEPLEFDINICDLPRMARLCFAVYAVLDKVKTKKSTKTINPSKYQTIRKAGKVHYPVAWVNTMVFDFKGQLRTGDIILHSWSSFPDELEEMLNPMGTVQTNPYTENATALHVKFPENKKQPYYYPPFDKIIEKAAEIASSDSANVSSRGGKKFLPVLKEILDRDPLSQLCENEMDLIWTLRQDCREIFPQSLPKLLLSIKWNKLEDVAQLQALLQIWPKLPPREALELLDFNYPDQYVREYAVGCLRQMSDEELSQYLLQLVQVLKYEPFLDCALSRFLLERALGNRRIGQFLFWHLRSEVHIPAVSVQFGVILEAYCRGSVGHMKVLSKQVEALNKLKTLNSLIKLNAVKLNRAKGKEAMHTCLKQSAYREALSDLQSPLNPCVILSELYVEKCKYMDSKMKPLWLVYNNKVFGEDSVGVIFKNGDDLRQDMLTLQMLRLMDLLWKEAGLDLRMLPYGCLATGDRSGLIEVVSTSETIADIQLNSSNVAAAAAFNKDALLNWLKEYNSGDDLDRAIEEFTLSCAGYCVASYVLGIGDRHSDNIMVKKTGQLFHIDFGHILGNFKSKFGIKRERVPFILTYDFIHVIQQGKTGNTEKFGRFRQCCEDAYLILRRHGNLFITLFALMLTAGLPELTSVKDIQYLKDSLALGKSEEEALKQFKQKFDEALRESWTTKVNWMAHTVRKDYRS
T2 sequence (P27986 whole entry partner): as the sequence (P27986 whole entry partner) above

[3] = biological target: T3, PI3K-α kinase (p110α/p85α) (Homo sapiens, UniProt P42336); assay: as above; type: biochemical; details: for IC50: ATP 10 μM; for increase of inhibitory activity against PI3K-α kinase compared with BKM-120: relative to BKM-120
T3 construct: purchased Invitrogen PV4788
T3 sequence (P42336 whole entry): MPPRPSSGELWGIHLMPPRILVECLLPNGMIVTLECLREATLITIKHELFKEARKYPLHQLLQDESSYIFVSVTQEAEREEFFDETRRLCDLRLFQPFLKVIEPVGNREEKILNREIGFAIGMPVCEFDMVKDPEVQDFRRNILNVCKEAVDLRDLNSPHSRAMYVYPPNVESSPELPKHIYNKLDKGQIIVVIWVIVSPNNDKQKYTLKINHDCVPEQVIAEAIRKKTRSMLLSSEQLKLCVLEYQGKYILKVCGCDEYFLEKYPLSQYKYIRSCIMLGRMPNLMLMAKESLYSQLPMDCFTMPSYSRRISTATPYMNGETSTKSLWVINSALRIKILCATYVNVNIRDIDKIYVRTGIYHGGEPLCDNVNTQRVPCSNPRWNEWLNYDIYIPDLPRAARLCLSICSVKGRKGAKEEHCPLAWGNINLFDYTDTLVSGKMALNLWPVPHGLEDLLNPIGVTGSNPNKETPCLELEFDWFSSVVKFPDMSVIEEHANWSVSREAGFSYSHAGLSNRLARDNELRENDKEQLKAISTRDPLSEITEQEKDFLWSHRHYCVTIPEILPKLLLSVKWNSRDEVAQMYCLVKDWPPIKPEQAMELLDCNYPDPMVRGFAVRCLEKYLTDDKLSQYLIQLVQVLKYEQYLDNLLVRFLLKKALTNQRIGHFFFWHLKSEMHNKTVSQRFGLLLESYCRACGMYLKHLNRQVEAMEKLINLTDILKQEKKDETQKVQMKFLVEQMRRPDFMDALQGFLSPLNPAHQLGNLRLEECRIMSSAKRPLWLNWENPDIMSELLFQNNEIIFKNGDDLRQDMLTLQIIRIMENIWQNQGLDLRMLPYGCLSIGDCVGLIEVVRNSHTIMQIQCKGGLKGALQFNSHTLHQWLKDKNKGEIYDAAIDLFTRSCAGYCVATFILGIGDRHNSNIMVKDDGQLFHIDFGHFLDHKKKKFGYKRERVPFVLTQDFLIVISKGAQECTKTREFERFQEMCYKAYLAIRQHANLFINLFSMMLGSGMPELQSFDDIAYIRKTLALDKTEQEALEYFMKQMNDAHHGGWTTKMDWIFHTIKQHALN
T3 sequence (P27986 whole entry partner): as the sequence (P27986 whole entry partner) above

[4] = biological target: T4, PI3K-γ kinase (p110γ) (Homo sapiens, UniProt P48736); assay: as above; type: biochemical; details: Table 1; ATP 10 μM; read-out: PI3K-γ/nM (IC50 of inhibitory activity against PI3K kinase)
T4 construct: purchased Invitrogen PV4786
T4 sequence (P48736 whole entry): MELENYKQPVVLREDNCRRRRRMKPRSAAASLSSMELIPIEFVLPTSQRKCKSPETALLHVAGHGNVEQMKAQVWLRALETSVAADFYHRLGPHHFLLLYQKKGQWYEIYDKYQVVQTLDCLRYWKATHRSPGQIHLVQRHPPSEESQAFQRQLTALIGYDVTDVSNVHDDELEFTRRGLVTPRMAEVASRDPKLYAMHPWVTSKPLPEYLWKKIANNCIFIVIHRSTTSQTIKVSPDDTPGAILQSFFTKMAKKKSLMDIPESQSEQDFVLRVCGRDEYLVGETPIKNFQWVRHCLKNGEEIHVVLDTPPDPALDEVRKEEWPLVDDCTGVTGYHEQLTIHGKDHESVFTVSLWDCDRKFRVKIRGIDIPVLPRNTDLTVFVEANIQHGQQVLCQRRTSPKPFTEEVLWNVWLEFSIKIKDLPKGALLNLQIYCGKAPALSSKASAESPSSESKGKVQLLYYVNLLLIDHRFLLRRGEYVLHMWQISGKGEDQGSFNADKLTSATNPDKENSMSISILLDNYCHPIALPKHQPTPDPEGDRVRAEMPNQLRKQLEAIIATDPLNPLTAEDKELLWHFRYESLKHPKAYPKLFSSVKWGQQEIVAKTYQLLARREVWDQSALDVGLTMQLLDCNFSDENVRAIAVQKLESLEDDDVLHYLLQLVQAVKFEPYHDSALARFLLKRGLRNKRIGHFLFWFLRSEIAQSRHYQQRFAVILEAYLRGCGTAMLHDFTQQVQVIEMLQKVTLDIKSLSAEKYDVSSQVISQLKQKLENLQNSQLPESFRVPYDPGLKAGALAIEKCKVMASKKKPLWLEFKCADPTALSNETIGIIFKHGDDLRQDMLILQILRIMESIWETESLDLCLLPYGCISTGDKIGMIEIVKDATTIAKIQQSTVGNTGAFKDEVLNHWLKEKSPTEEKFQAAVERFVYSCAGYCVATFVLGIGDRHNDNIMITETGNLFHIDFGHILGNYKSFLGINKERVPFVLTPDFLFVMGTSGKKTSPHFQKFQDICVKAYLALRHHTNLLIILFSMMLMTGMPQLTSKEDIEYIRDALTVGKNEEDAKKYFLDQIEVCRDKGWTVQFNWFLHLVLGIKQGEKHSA
Summary of the method: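 Each 25 μL reaction held PI3K enzyme (p110α/p85α 3 ng, p110β/p85α 60 ng, p110δ/p85α 90 ng, or p110γ 100 ng), 10 μM ATP, 30 μM PIP2:PS and 2% DMSO, incubated 1 h at 25 °C. Compounds were tested in duplicate across a 3-fold series, 0.00046–1 μM as prepared. ADP was detected by Transcreener fluorescence polarization, quantified against an ADP/ATP standard curve, and IC50 fitted.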

[5] = system: MCF-7 cells; assay: Cell inhibitory activity detected by MTT assay, MCF-7; type: cell-based; details: Homo sapiens, MCF7, 72 h, read-out: MCF-7 cell (IC50/nM), cell growth inhibition
Summary of the method: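 MCF-7 cells in DMEM + 10% FBS were treated after adherence with compounds at 8 concentrations (0.0046–10 μM) for 72 h at 37 °C, 5% CO2.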

[6] = Table 1, read-out: PI3K-α/nM (IC50 of inhibitory activity against PI3K kinase)
[7] = Table 2, read-out: PI3K-α/nM (IC50 of inhibitory activity against PI3K-α kinase)

Structure (SMILES): C[C@@H]1COCCN1c1nc(-c2cnc(N)cc2Cl)cc(C2(S(C)(=O)=O)CC2)n1 [Compound S-68]
IC50 [1]: 143 nM
IC50 [2]: 92 nM
IC50 [3, 6]: 8 nM
IC50 [3, 7]: 8 nM
IC50 [4]: 184 nM
IC50 [5]: 94 nM

Structure (SMILES): C[C@H]1COCCN1c1nc(-c2cnc(N)cc2F)cc(C(C)(C)S(C)(=O)=O)n1 [Compound S-84]
IC50 [1]: 18 nM
IC50 [2]: 812 nM
IC50 [3, 6]: 21 nM
IC50 [4]: 219 nM
IC50 [5]: 15 nM

Structure (SMILES): COC(C)(C)c1cc(-c2cnc(N)cc2C(F)(F)F)nc(N2CCOCC2)n1 [Compound S-71, 5-(6-(2-methoxypropan-2-yl)-2-morpholinopyrimidin-4-yl)-4-(trifluoromethyl) pyridin-2-amine]
IC50 [2]: 177 nM
IC50 [3, 6]: 9 nM
IC50 [4]: 1030 nM
IC50 [5]: 436 nM

Structure (SMILES): CS(=O)(=O)C(F)(F)c1cc(-c2cnc(N)cc2Cl)nc(N2CCOCC2)n1 [Compound S-54, 4-chloro-5-(6-(difluoro(methylsulfonyl)methyl)-2-morpholinopyrimidin-4-yl)pyridin-2-amine]
IC50 [1]: 145 nM
IC50 [2]: 92 nM
IC50 [3, 6]: 12 nM
IC50 [4]: 199 nM
IC50 [5]: 159 nM

Structure (SMILES): CCS(=O)(=O)C1(c2cc(-c3cnc(N)cc3C(F)(F)F)nc(N3CCOC[C@@H]3C)n2)CCC1 [Compound S-23]
IC50 [1]: 62 nM
IC50 [2]: 620 nM
IC50 [3, 6]: 16 nM
IC50 [4]: 525 nM
IC50 [5]: 246 nM

Structure (SMILES): C[C@H]1COCCN1c1nc(-c2cnc(N)cc2Cl)cc(C2(S(C)(=O)=O)CCC2)n1 [Compound S-31]
IC50 [1]: 103 nM
IC50 [2]: 171 nM
IC50 [3, 6]: 12 nM
IC50 [4]: 148 nM
IC50 [5]: 45 nM

Structure (SMILES): CCS(=O)(=O)C1(c2cc(-c3cnc(N)cc3F)nc(N3CCOCC3)n2)CC1 [Compound S-85]
IC50 [1]: 228 nM
IC50 [2]: 484 nM
IC50 [3, 6]: 29 nM
IC50 [3, 7]: 29 nM
IC50 [4]: 244 nM
IC50 [5]: 25 nM

Structure (SMILES): CC(C)(c1cc(-c2cnc(N)cc2F)nc(N2CCOCC2)n1)S(C)(=O)=O [Compound S-81]
IC50 [1]: 178 nM
IC50 [2]: 812 nM
IC50 [3, 6]: 43 nM
IC50 [4]: 181 nM
IC50 [5]: 104 nM

Structure (SMILES): C[C@H]1COCCN1c1nc(-c2cnc(N)cc2C(F)(F)F)cc(C(C)(C)S(C)(=O)=O)n1 [Compound S-41]
IC50 [1]: 79 nM
IC50 [2]: 82 nM
IC50 [3, 6]: 6 nM
IC50 [4]: 331 nM
IC50 [5]: 170 nM

Structure (SMILES): CC(C)(c1cc(-c2cnc(N)cc2Cl)nc(N2CCOCC2)n1)S(C)(=O)=O [Compound S-38, 4-chloro-5-(6-(2-(methylsulfonyl)prop-2-yl)-2-morpholinopyrimidin-4-yl)pyridin-2-amine]
IC50 [1]: 212 nM
IC50 [2]: 113 nM
IC50 [3, 6]: 17 nM
IC50 [4]: 369 nM
IC50 [5]: 180 nM

Structure (SMILES): CC(C)(c1cc(-c2cnc(N)nc2C(F)(F)F)nc(N2CCOCC2)n1)S(C)(=O)=O [Compound S-45]
IC50 [1]: 17 nM
IC50 [2]: 28 nM
IC50 [3, 6]: 35 nM
IC50 [4]: 78 nM
IC50 [5]: 329 nM

Structure (SMILES): CC(C)S(=O)(=O)C1(c2cc(-c3cnc(N)cc3C(F)(F)F)nc(N3CCOC[C@@H]3C)n2)CCC1 [Compound S-13, (S)-5-(6-(1-(isopropylsulfonyl)cyclobutyl)-2-(3-methylmorpholino)pyrimidin-4-yl)-4-(trifluoromethyl)pyridin-2-amine]
IC50 [1]: 226 nM
IC50 [2]: 1670 nM
IC50 [3, 6]: 67 nM
IC50 [4]: > 3000 nM
IC50 [5]: 153 nM

Structure (SMILES): CCS(=O)(=O)C1(c2cc(-c3cnc(N)cc3C(F)(F)F)nc(N3CCOCC3)n2)CCC1 [Compound S-49, 5-(6-(1-(ethylsulfonyl)cyclobutyl)-2-morpholinopyrimidin-4-yl)-4-(trifluoromethyl)pyridin-2-amine]
IC50 [1]: 85 nM
IC50 [2]: 327 nM
IC50 [3, 6]: 17 nM
IC50 [4]: 2020 nM
IC50 [5]: 187 nM

Second part, the molecule after the results:

IC50 [1]: 46 nM
IC50 [2]: 73 nM
IC50 [3, 6]: 9 nM
IC50 [3, 7]: 9 nM
IC50 [4]: 160 nM
IC50 [5]: 212 nM
Structure (SMILES): Nc1cc(Cl)c(-c2cc(C3(S(=O)(=O)c4ccccc4F)CC3)nc(N3CCOCC3)n2)cn1 [Compound S-66]

IC50 [1]: 63 nM
IC50 [2]: 105 nM
IC50 [3, 6]: 5 nM
increase of inhibitory activity against PI3K-α kinase compared with BKM-120 [3]: about 10 times
IC50 [4]: 155 nM
IC50 [5]: 78 nM
Structure (SMILES): C[C@H]1COCCN1c1nc(-c2cnc(N)cc2C(F)(F)F)cc(C2(S(C)(=O)=O)CCC2)n1 [Compound S-9]

IC50 [1]: 161 nM
IC50 [2]: 977 nM
IC50 [3, 6]: 76 nM
IC50 [4]: 923 nM
IC50 [5]: 73 nM
Structure (SMILES): C[C@H]1COCCN1c1nc(-c2ccc(N)nc2)cc(C2(S(C)(=O)=O)CCC2)n1 [Compound S-32]

IC50 [1]: 42 nM
IC50 [2]: 676 nM
IC50 [3, 6]: 24 nM
IC50 [4]: 1160 nM
Structure (SMILES): Nc1cc(C(F)(F)F)c(-c2cc(C3(S(=O)(=O)c4ccccc4)CCC3)nc(N3CCOCC3)n2)cn1 [Compound S-20]

IC50 [1]: 84 nM
IC50 [2]: 28 nM
IC50 [3, 6]: 4 nM
IC50 [3, 7]: 4 nM
increase of inhibitory activity against PI3K-α kinase compared with BKM-120 [3]: about 10 times
IC50 [4]: 114 nM
IC50 [5]: 258 nM
Structure (SMILES): CS(=O)(=O)C1(c2cc(-c3cnc(N)cc3Cl)nc(N3CCOCC3)n2)CC1 [Compound S-37, 4-chloro-5-(6-(1-(methylsulfonyl)cyclopropyl)-2-morpholinopyrimidin-4-yl)pyridin-2-amine]

IC50 [1]: 810 nM
IC50 [2]: 943 nM
IC50 [3, 6]: 23 nM
IC50 [3, 7]: 23 nM
IC50 [4]: 654 nM
IC50 [5]: 131 nM
Structure (SMILES): COC(C)(C)c1cc(-c2cnc(N)cc2Cl)nc(N2CCOC[C@@H]2C)n1 [Compound S-75]

IC50 [1]: 132 nM
IC50 [2]: 86 nM
IC50 [3, 6]: 39 nM
IC50 [4]: 116 nM
IC50 [5]: 27 nM
Structure (SMILES): CS(=O)(=O)C1(c2cc(-c3cnc(N)cc3F)nc(N3CCOCC3)n2)CC1 [Compound S-82]

IC50 [3, 6]: 20 nM
IC50 [4]: 204 nM
IC50 [5]: 11 nM
Structure (SMILES): C[C@H]1COCCN1c1nc(-c2cnc(N)cc2F)cc(C2(S(C)(=O)=O)CC2)n1 [Compound S-83]

IC50 [1]: 184 nM
IC50 [2]: 527 nM
IC50 [3, 6]: 12 nM
IC50 [4]: 354 nM
Structure (SMILES): CS(=O)(=O)C1(c2cc(-c3cnc(N)cc3C(F)(F)F)nc(N3CCOCC3)n2)CCC1 [Compound S-4]

IC50 [1]: 2580 nM
IC50 [2]: 2160 nM
IC50 [3, 6]: 90 nM
IC50 [4]: > 3000 nM
IC50 [5]: 639 nM
Structure (SMILES): CS(=O)(=O)C1(c2cc(N3CCOCC3)nc(-c3cnc(N)cc3C(F)(F)F)n2)CC1 [reference compound]

IC50 [1]: 13 nM
IC50 [2]: 8 nM
IC50 [3, 6]: 6 nM
increase of inhibitory activity against PI3K-α kinase compared with BKM-120 [3]: about 10 times
IC50 [4]: 96 nM
IC50 [5]: 301 nM
Structure (SMILES): CS(=O)(=O)C1(c2cc(-c3cnc(N)nc3C(F)(F)F)nc(N3CCOCC3)n2)CC1 [Compound S-46]

IC50 [1]: 12 nM
IC50 [2]: 18 nM
IC50 [3, 6]: 12 nM
IC50 [4]: 141 nM
IC50 [5]: 101 nM
Structure (SMILES): C[C@H]1COCCN1c1nc(-c2cnc(N)nc2C(F)(F)F)cc(C2(S(C)(=O)=O)CCC2)n1 [Compound S-30]

IC50 [1]: 493 nM
IC50 [2]: 512 nM
IC50 [3, 6]: 80 nM
IC50 [4]: > 3000 nM
Structure (SMILES): CC(C)S(=O)(=O)C1(c2cc(-c3cnc(N)cc3C(F)(F)F)nc(N3CCOCC3)n2)CCC1 [Compound S-19]

IC50 [1]: 33 nM
IC50 [2]: 72 nM
IC50 [3, 6]: 4 nM
IC50 [4]: 121 nM
IC50 [5]: 184 nM
Structure (SMILES): Nc1cc(C(F)(F)F)c(-c2cc(C3(S(=O)(=O)c4ccccc4F)CC3)nc(N3CCOCC3)n2)cn1 [Compound S-58]

IC50 [1]: 209 nM
IC50 [2]: 521 nM
IC50 [3, 6]: 48 nM
IC50 [3, 7]: 48 nM
IC50 [4]: 98 nM
IC50 [5]: 102 nM
Structure (SMILES): Nc1cc(F)c(-c2cc(C3(S(=O)(=O)C4CC4)CC3)nc(N3CCOCC3)n2)cn1 [Compound S-88]

IC50 [1]: 246 nM
IC50 [2]: 548 nM
IC50 [4]: 957 nM
IC50 [5]: 437 nM
Structure (SMILES): CC(C)S(=O)(=O)C1(c2cc(-c3cnc(N)cc3C(F)(F)F)nc(N3CCOCC3)n2)CC1 [Compound S-18]

IC50 [1]: 207 nM
IC50 [2]: 316 nM
IC50 [3, 6]: 53 nM
IC50 [3, 7]: 53 nM
IC50 [4]: 228 nM
IC50 [5]: 66 nM
Structure (SMILES): COC(C)(C)c1cc(-c2cnc(N)cc2Cl)nc(N2CCOCC2)n1 [Compound S-76]

IC50 [1]: 59 nM
IC50 [2]: 208 nM
IC50 [3, 6]: 6 nM
IC50 [3, 7]: 6 nM
IC50 [4]: 113 nM
IC50 [5]: 105 nM
Structure (SMILES): C[C@@H]1COCCN1c1nc(-c2cnc(N)cc2Cl)cc(C(C)(C)S(C)(=O)=O)n1 [Compound S-67]

IC50 [1]: 367 nM
IC50 [2]: 1140 nM
IC50 [3, 6]: 42 nM
IC50 [4]: 592 nM
IC50 [5]: 340 nM
Structure (SMILES): CS(=O)(=O)C1(c2cc(-c3cnc(N)cc3C(F)(F)F)nc(N3CCOCC3)n2)CCCC1 [Compound S-10]

IC50 [1]: 58 nM
IC50 [2]: 115 nM
IC50 [3, 6]: 12 nM
IC50 [4]: 112 nM
IC50 [5]: 79 nM
Structure (SMILES): C[C@H]1COCCN1c1nc(-c2cnc(N)nc2)cc(C2(S(C)(=O)=O)CCC2)n1 [Compound S-33]
